What was measured:
[1] = target: Serine/threonine-protein kinase N1 (Homo sapiens) (UniProt Q16512); conditions: Compound concentration 1000.0 nM
[2] = target: AP2-associated protein kinase 1 (Homo sapiens) (UniProt Q2M2I8); conditions: Compound concentration 1000.0 nM
[3] = target: Serine/threonine-protein kinase PAK 6 (Homo sapiens) (UniProt Q9NQU5); conditions: Compound concentration 1000.0 nM
[4] = target: Serine/threonine-protein kinase MRCK beta (Homo sapiens) (UniProt Q9Y5S2); conditions: Compound concentration 1000.0 nM
[5] = target: Ephrin type-A receptor 2 (Homo sapiens) (UniProt P29317); conditions: Compound concentration 1000.0 nM
[6] = target: Mitotic checkpoint serine/threonine-protein kinase BUB1 (Homo sapiens) (UniProt O43683); conditions: Compound concentration 1000.0 nM
Sequence of Mitotic checkpoint serine/threonine-protein kinase BUB1 (Homo sapiens) (O43683 whole entry, looked up): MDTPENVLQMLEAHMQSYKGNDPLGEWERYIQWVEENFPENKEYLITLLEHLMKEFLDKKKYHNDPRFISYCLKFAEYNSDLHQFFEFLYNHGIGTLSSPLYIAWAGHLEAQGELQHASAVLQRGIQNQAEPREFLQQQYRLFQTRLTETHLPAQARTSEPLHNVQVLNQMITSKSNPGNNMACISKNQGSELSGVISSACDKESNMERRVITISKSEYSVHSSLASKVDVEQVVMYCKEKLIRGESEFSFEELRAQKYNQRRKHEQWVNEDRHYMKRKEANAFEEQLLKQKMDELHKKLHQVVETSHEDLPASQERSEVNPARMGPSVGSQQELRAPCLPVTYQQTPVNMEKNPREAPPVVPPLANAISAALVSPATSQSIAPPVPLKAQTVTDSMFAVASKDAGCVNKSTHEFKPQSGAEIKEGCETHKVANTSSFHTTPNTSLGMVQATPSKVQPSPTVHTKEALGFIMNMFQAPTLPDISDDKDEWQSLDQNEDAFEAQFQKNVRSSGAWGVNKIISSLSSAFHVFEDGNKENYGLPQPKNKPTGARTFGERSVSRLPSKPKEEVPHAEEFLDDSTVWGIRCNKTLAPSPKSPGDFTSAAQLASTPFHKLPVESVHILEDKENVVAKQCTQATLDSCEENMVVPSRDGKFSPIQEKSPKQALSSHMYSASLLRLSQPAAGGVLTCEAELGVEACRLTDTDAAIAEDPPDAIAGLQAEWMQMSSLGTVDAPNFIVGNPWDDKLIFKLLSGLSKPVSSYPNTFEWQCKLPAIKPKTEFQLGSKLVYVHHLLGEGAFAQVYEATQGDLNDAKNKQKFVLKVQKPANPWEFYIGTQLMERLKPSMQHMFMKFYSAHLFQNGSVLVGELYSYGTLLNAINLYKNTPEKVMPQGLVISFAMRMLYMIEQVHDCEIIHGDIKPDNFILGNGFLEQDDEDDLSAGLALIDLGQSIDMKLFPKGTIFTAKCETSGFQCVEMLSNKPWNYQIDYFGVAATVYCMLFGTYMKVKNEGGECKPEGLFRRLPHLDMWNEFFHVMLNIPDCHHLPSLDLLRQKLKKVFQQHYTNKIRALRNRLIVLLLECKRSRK

[7] = target: Serine/threonine-protein kinase Nek4 (Homo sapiens) (UniProt P51957); conditions: Compound concentration 1000.0 nM
[8] = target: Activin receptor type-2A (Homo sapiens) (UniProt P27037); conditions: Compound concentration 1000.0 nM
[9] = target: Tyrosine-protein kinase SYK (Homo sapiens) (UniProt P43405); conditions: Compound concentration 1000.0 nM
[10] = target: Cyclin-dependent kinase-like 2 (Homo sapiens) (UniProt Q92772); conditions: Compound concentration 1000.0 nM
[11] = test system: Epidermal growth factor receptor (Homo sapiens), P00533 [L858R]; conditions: Compound concentration 1000.0 nM
[12] = target: Dual specificity protein kinase CLK4 (Homo sapiens) (UniProt Q9HAZ1); conditions: Compound concentration 1000.0 nM
[13] = target: Alpha-2C adrenergic receptor (Homo sapiens) (UniProt P18825); conditions: Compound concentration 10.0 uM
[14] = target: Ribosomal protein S6 kinase alpha-5 (Homo sapiens) (UniProt O75582); conditions: Compound concentration 1000.0 nM
[15] = target: Receptor-interacting serine/threonine-protein kinase 2 (Homo sapiens) (UniProt O43353); conditions: Compound concentration 1000.0 nM
Sequence of Receptor-interacting serine/threonine-protein kinase 2 (Homo sapiens) (O43353 whole entry): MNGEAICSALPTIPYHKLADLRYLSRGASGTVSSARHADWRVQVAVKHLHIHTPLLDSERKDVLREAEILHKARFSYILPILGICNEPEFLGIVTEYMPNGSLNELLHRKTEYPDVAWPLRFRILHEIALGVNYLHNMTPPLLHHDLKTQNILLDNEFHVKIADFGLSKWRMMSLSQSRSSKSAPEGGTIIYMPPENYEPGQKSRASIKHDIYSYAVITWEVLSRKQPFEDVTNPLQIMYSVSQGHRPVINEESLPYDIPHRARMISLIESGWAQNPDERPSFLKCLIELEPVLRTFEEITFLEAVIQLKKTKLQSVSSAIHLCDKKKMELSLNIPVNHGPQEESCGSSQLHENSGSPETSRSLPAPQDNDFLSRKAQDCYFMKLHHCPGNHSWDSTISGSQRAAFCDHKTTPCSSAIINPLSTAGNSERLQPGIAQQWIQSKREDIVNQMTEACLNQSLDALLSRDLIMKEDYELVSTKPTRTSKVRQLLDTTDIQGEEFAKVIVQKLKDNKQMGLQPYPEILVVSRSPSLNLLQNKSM

[16] = target: Ephrin type-B receptor 3 (Homo sapiens) (UniProt P54753); conditions: Compound concentration 1000.0 nM
[17] = target: Receptor tyrosine-protein kinase erbB-2 (Homo sapiens) (UniProt P04626); conditions: Compound concentration 1000.0 nM
[18] = target: Serine/threonine-protein kinase TNNI3K (Homo sapiens) (UniProt Q59H18); conditions: Compound concentration 1000.0 nM
[19] = target: Serine/threonine-protein kinase Chk2 (Homo sapiens) (UniProt O96017); conditions: Compound concentration 1000.0 nM
[20] = target: Cyclin-dependent kinase 19 (Homo sapiens) (UniProt Q9BWU1); conditions: Compound concentration 1000.0 nM
[21] = target: Serine/threonine-protein kinase SIK1 (Homo sapiens) (UniProt P57059); conditions: Compound concentration 1000.0 nM
[22] = target: Dual specificity mitogen-activated protein kinase kinase 4 (Homo sapiens) (UniProt P45985); conditions: Compound concentration 1000.0 nM
[23] = test system: Receptor-type tyrosine-protein kinase FLT3 (Homo sapiens), P36888 [R834Q]; conditions: Compound concentration 1000.0 nM
[24] = target: Serine/threonine-protein kinase PAK 1 (Homo sapiens) (UniProt Q13153); conditions: Compound concentration 1000.0 nM
[25] = target: Serine/threonine-protein kinase Nek6 (Homo sapiens) (UniProt Q9HC98); conditions: Compound concentration 1000.0 nM
[26] = target: Microtubule-associated serine/threonine-protein kinase 1 (Homo sapiens) (UniProt Q9Y2H9); conditions: Compound concentration 1000.0 nM
[27] = target: High affinity nerve growth factor receptor (Homo sapiens) (UniProt P04629); conditions: Compound concentration 1000.0 nM
[28] = target: Activated CDC42 kinase 1 (Homo sapiens) (UniProt Q07912); conditions: Compound concentration 1000.0 nM
Sequence of Activated CDC42 kinase 1 (Homo sapiens) (Q07912 whole entry, looked up): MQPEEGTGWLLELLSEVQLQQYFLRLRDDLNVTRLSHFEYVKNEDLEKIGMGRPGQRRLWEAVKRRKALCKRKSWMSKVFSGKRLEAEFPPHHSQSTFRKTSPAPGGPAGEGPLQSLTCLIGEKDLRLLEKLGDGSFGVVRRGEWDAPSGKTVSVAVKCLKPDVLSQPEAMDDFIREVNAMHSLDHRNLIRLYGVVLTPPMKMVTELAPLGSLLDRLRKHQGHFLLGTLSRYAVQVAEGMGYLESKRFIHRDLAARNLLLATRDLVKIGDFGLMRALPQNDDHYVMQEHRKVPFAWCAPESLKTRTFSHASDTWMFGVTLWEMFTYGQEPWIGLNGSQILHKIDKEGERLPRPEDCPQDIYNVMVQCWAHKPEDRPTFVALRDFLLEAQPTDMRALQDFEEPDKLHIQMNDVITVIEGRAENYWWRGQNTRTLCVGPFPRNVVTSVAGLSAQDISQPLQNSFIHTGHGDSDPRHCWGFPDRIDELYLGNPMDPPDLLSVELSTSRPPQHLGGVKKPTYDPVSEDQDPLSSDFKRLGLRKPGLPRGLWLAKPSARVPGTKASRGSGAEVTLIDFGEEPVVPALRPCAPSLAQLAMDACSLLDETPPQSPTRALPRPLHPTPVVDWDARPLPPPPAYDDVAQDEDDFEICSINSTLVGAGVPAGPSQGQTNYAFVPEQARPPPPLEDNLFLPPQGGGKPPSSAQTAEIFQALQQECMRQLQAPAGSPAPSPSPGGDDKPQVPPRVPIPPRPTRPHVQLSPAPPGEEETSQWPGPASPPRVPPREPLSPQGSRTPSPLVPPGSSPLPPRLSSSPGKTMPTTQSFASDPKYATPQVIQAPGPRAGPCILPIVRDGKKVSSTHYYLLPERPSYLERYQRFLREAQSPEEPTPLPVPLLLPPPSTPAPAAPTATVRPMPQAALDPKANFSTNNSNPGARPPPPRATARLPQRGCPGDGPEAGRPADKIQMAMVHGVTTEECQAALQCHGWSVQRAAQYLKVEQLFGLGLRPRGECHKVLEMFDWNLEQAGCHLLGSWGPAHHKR

[29] = target: Alpha-1A adrenergic receptor (Homo sapiens) (UniProt P35348); conditions: Compound concentration 10.0 uM
[30] = target: Serine/threonine-protein kinase D1 (Homo sapiens) (UniProt Q15139); conditions: Compound concentration 1000.0 nM
[31] = target: Serine/threonine-protein kinase WNK1 (Homo sapiens) (UniProt Q9H4A3); conditions: Compound concentration 1000.0 nM
[32] = target: Casein kinase I isoform gamma-1 (Homo sapiens) (UniProt Q9HCP0); conditions: Compound concentration 1000.0 nM
Sequence of Casein kinase I isoform gamma-1 (Homo sapiens) (Q9HCP0 whole entry, looked up, canonical isoform): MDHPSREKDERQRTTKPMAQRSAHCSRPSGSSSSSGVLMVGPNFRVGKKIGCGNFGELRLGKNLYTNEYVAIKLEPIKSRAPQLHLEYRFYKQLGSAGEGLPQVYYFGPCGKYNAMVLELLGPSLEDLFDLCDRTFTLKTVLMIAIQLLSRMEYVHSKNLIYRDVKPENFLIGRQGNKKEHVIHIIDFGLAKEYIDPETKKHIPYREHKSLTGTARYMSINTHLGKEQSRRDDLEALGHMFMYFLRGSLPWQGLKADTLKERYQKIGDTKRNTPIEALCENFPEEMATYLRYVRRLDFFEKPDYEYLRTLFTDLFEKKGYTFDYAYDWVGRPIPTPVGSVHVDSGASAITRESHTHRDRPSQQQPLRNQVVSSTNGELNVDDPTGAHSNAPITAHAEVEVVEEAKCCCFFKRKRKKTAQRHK

[33] = target: Dual specificity tyrosine-phosphorylation-regulated kinase 2 (Homo sapiens) (UniProt Q92630); conditions: Compound concentration 1000.0 nM
[34] = target: 5-hydroxytryptamine receptor 2A (Homo sapiens) (UniProt P28223); conditions: Compound concentration 10.0 uM
Sequence of 5-hydroxytryptamine receptor 2A (Homo sapiens) (P28223 whole entry): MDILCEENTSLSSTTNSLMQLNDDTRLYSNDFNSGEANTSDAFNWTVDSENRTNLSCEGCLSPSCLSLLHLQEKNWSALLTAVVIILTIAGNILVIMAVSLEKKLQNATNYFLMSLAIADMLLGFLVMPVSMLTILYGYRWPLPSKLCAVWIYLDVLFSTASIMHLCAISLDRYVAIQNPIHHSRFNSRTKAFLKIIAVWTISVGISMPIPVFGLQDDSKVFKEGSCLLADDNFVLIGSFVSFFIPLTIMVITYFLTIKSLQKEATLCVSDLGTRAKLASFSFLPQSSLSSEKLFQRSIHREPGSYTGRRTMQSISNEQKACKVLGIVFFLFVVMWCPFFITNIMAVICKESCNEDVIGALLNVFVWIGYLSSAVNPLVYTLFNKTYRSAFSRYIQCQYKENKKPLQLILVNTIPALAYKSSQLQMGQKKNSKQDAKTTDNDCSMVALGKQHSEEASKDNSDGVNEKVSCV

[35] = target: Fibroblast growth factor receptor 4 (Homo sapiens) (UniProt P22455); conditions: Compound concentration 1000.0 nM
Sequence of Fibroblast growth factor receptor 4 (Homo sapiens) (P22455 22-802 limits assumed): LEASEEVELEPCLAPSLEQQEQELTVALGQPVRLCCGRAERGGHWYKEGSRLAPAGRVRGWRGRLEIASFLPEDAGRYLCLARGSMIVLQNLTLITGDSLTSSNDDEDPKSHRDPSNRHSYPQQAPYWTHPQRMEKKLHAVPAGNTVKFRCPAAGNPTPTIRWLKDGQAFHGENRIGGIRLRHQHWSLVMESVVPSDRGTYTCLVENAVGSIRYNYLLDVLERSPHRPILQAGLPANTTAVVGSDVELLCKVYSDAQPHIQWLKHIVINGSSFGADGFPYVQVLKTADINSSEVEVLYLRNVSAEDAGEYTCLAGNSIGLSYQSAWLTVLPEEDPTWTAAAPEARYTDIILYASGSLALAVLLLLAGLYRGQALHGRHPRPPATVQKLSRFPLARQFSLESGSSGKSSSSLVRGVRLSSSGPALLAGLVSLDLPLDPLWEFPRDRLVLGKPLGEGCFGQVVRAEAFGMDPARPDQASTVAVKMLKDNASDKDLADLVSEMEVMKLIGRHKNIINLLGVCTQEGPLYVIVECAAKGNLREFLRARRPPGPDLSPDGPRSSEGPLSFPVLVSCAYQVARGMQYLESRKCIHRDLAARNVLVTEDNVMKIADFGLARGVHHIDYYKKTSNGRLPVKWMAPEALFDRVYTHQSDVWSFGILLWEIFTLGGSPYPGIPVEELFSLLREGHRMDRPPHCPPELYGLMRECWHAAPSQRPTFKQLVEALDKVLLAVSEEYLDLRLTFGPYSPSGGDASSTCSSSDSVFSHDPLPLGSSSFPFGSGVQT

[36] = target: Cyclin-dependent kinase 11B (Homo sapiens) (UniProt P21127); conditions: Compound concentration 1000.0 nM
[37] = target: Beta-3 adrenergic receptor (Homo sapiens) (UniProt P13945); conditions: Compound concentration 10.0 uM
[38] = target: Tyrosine-protein kinase Srms (Homo sapiens) (UniProt Q9H3Y6); conditions: Compound concentration 1000.0 nM
Sequence of Tyrosine-protein kinase Srms (Homo sapiens) (Q9H3Y6 whole entry): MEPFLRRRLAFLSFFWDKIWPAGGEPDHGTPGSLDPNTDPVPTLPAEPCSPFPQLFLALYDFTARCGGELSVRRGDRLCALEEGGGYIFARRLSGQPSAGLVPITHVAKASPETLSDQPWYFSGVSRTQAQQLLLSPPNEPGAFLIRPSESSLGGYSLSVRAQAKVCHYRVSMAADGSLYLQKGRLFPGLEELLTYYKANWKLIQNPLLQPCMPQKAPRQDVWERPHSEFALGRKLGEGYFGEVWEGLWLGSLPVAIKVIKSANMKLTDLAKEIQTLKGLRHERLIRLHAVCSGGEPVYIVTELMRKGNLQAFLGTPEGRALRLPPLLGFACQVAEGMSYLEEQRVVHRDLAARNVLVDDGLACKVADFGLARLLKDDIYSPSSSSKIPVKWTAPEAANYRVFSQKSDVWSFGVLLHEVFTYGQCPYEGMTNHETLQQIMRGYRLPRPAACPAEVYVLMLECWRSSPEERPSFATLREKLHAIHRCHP

[39] = target: Interleukin-1 receptor-associated kinase 1 (Homo sapiens) (UniProt P51617); conditions: Compound concentration 1000.0 nM
[40] = target: Serine/threonine-protein kinase 33 (Homo sapiens) (UniProt Q9BYT3); conditions: Compound concentration 1000.0 nM
[41] = target: Serine/threonine-protein kinase PLK3 (Homo sapiens) (UniProt Q9H4B4); conditions: Compound concentration 1000.0 nM
[42] = target: Serine/threonine-protein kinase DCLK3 (Homo sapiens) (UniProt Q9C098); conditions: Compound concentration 1000.0 nM
[43] = target: Alpha-1D adrenergic receptor (Homo sapiens) (UniProt P25100); conditions: Compound concentration 10.0 uM
[44] = test system: Tyrosine-protein kinase ABL1 (Homo sapiens), P00519 [Q252H]; conditions: Compound concentration 1000.0 nM
[45] = target: Mitogen-activated protein kinase kinase kinase 20 (Homo sapiens) (UniProt Q9NYL2); conditions: Compound concentration 1000.0 nM

CCC(=N\O)/C(C)=C/c1ccc(F)cc1 [A-079]
inactive: residual activity [1] 100% | residual activity [2] 89% | residual activity [3] 100% | residual activity [4] 100% | residual activity [5] 84% | residual activity [6] 88% | residual activity [7] 83% | residual activity [8] 100% | residual activity [9] 100% | residual activity [10] 92% | residual activity [11] 65% | residual activity [12] 100% | inhibition [13] 8.29% | residual activity [14] 100% | residual activity [15] 91% | residual activity [16] 75% | residual activity [17] 83% | residual activity [18] 70% | residual activity [19] 85% | residual activity [20] 79% | residual activity [21] 80% | residual activity [22] 75% | residual activity [23] 80% | residual activity [24] 88% | residual activity [25] 87% | residual activity [26] 71% | residual activity [27] 83% | residual activity [28] 85% | inhibition [29] -9.69% | residual activity [30] 71% | residual activity [31] 83% | residual activity [32] 99% | residual activity [33] 94% | inhibition [34] 21.7% | residual activity [35] 96% | residual activity [36] 89% | inhibition [37] -0.54% | residual activity [38] 76% | residual activity [39] 79% | residual activity [40] 100% | residual activity [41] 86% | residual activity [42] 77% | inhibition [43] -4.38% | residual activity [44] 69% | residual activity [45] 84%

CCC(=N\O)/C(C)=C/c1ccc(F)c(C)c1 [A-226]
inactive: residual activity [1] 100% | residual activity [2] 98% | residual activity [3] 100% | residual activity [4] 69% | residual activity [5] 89% | residual activity [6] 100% | residual activity [7] 67% | residual activity [8] 100% | residual activity [9] 76% | residual activity [10] 81% | residual activity [11] 100% | residual activity [12] 97% | inhibition [13] 15.7% | residual activity [14] 89% | residual activity [15] 65% | residual activity [16] 96% | residual activity [17] 91% | residual activity [18] 53% | residual activity [19] 90% | residual activity [20] 100% | residual activity [21] 96% | residual activity [22] 100% | residual activity [23] 100% | residual activity [24] 70% | residual activity [25] 99% | residual activity [26] 100% | residual activity [27] 100% | residual activity [28] 100% | inhibition [29] -8.35% | residual activity [30] 100% | residual activity [31] 100% | residual activity [32] 100% | residual activity [33] 87% | inhibition [34] 40.8% | residual activity [35] 83% | residual activity [36] 95% | inhibition [37] 11.1% | residual activity [38] 100% | residual activity [39] 100% | residual activity [40] 96% | residual activity [41] 100% | residual activity [42] 100% | inhibition [43] -3.74% | residual activity [44] 100% | residual activity [45] 76%

Source: ChEMBL document CHEMBL4507256 (2021)
